Assay results: patent US10471059B2, “Compositions and methods of using tyrosine kinase inhibitors” (YALE UNIVERSITY, priority 2015, dated 2019)
“Also recorded” adds a separate entry of the source.

Assays:
Assay type in all cases: in vivo
Ptpn11^D61G/+ mice = assay: Heart weight and histology (Masson's trichrome) after postnatal dasatinib; conditions: NS mice
Experimental: FIG. 15, comprising FIG. 15a-15j, is a panel of images showing cardiomyopathy and cardiac fibrosis in Ptpn11^D61G/+ mice rescued by dasatinib. […] FIG. 15e is a graph showing relative expression of fibrosis marker gene, Col1a2. […] FIG. 15f is a graph showing relative expression of fibrosis marker gene, Col3a1. FIG. 15g is a graph showing relative expression of cardiac fetal gene, Myh6 (αMHC). FIG. 15h is a graph showing relative expression of cardiac fetal gene, Myh7 (βMHC). FIG. 15i is a graph showing relative expression of cardiac fetal gene, Anf. FIG. 15j is a graph showing relative expression of cardiac fetal gene, Bnp. The genes were measured by quantitative RT-PCR (n=6 for each group). […] (Two-way ANOVA test).

[1] = test system: c-Src and PZR tyrosyl phosphorylation in the heart of NS mice; assay: Phosphorylation in heart tissue after i.p. dasatinib, immunoblot
[2] = test system: WT and Ptpn11^D61G/+ mice; assay: Echocardiography, postnatal dasatinib treatment; conditions: for % EF (ejection fraction) / % FS (fractional shortening) / IVS, d (Intraventricular septum wall thickness, diastole) / IVS, s (Intraventricular septum wall thickness, systole) / LV vol, d (left ventricle volume, diastole) / LV vol, s (left ventricle volume, systole) / LVID, d (left ventricular internal dimension, diastole) / LVID, s (left ventricular internal dimension, systole) / LVPW, d (left ventricular posterior wall thickness, diastole) / LVPW, s (left ventricular posterior wall thickness, systole): n = 6, Mean ± SEM
Experimental: Dasatinib Treatment—N-(2-chloro-6-methylphenyl)-2-[[6-[4-(2-hydroxyethyl)-1-piperazinyl]-2-methyl-4-pyrimidinyl]amino]-5-thiazole carboxamide monohydrate (dasatinib, BMS-354825) was purchased from Biovision. dasatinib was dissolved in DMSO at a concentration of 10 mg/ml, then resuspended in vehicle (1× Dulbecco's PBS) at a concentration of 200 μg/ml. […] And then, injection was continued or discontinued for 2 weeks, Vehicle-injected mice served as control, Body weight was measured weekly and echocardiography was performed at P42 (6-weeks) and P56 (8-weeks).
Vehicle-injected mice served as control.

[3] = postnatal 0.1 mg/kg/day i.p. P10 to P42, then discontinued 2 weeks, Ptpn11D61G/+ mice, P56
[4] = postnatal 0.1 mg/kg/day i.p. P10 to P42, then discontinued 2 weeks, WT mice, P56
[5] = postnatal 0.1 mg/kg/day i.p. from P10, Ptpn11D61G/+ mice, P42
[6] = postnatal 0.1 mg/kg/day i.p. from P10, WT mice, P42

For `Cc1nc(Nc2ncc(C(=O)Nc3c(C)cccc3Cl)s2)cc(N2CCN(CCO)CC2)n1.O` [Dasatinib, N-(2-chloro-6-methylphenyl)-2-[[6-[4-(2-hydroxyethyl)-1-piperazinyl]-2-methyl-4-pyrimidinyl]amino]-5-thiazole carboxamide monohydrate], the “cardiac fibrosis at the histological level” value (Ptpn11^D61G/+ mice; P56) was “markedly reduced”, the “pathologic cardiac phenotypes (heart weight, dilated cardiomyopathy, myofibrillar disorganization)” value (Ptpn11^D61G/+ mice; P56, monohydrate) was “profound reversal; also recorded: rescued” and the “ERK1/2, Raf-1, MEK1, p38 MAPK and JNK phosphorylation in the heart” value ([1]; 3-week-old NS mice, dasatinib 0.1-0.5 mg/kg i.p.) was “neither ERK1/2 phosphorylation (FIGS. 13i-13l), Raf-1, MEK1, p38 MAPK, nor JNK were affected”. The “dose sufficient to significantly inhibit both c-Src and PZR tyrosyl phosphorylation in the heart” value ([1]; 3-week-old NS mice, i.p., heart isolated after 18 hr) was 0.5 mg/kg, the “fold lower dose than effective chemotherapeutic doses that can inhibit PZR tyrosyl phosphorylation in the heart” value ([1]; NS mice, chemotherapeutic approx. 1.4-2.0 mg/kg/day) was “up to 250 fold” and the “PZR tyrosyl phosphorylation in heart tissue” value ([1]; male Ptpn11D61G/+ mice, i.p., 24 h) was “effective at reducing”. The “fold lower than therapeutic dose” value ([2]; 0.1 mg/kg versus therapeutic dose) was “about 200 fold”, the “dose sufficient to treat CHD-associated cardiac disease” value ([2]; mice) was 0.1 mg/kg and the “cardiac function after cessation of treatment” value ([2]; postnatal 0.1 mg/kg/day P10 to P42, discontinued 2 weeks, NS mice, P56, monohydrate) was “preserved improvement of cardiac function; also recorded: continued preservation of cardiac function”. The “cardiac function (EF and FS)” value ([2]; postnatal 0.1 mg/kg/day from P10, NS mice, P42, monohydrate) was “improves cardiac function; also recorded: complete corrective functionality; also recorded: completely restored cardiac functionality”, the “% EF (ejection fraction)” value [2, 3] was 64.71 ± 1.67 % and the “% FS (fractional shortening)” value [2, 3] was 34.92 ± 1.23 %. For the same compound, the “IVS, d (Intraventricular septum wall thickness, diastole)” value (“IVS, d” below) [2, 3] was 0.72 ± 0.04 mm, the “IVS, s (Intraventricular septum wall thickness, systole)” value (“IVS, s” below) [2, 3] was 1.18 ± 0.05 mm and the “LV vol, d (left ventricle volume, diastole)” value (shortened to “LV vol, d”) [2, 3] was 65.60 ± 2.44 mm^3. For the same compound, the “LV vol, s (left ventricle volume, systole)” value (“LV vol, s” below) [2, 3] was 24.85 ± 1.68^† mm^3, the “LVID, d (left ventricular internal dimension, diastole)” value (“LVID, d” for short) [2, 3] was 3.93 ± 0.08 mm and the “LVID, s (left ventricular internal dimension, systole)” value (shortened to “LVID, s”) [2, 3] was 2.60 ± 0.07 mm. The “LVPW, d (left ventricular posterior wall thickness, diastole)” value (shortened to “LVPW, d”) [2, 3] was 0.65 ± 0.03 mm, the “LVPW, s (left ventricular posterior wall thickness, systole)” value (from here on “LVPW, s”) [2, 3] was 1.19 ± 0.05 mm and the “% EF (ejection fraction)” value [2, 4] was 65.89 ± 1.74%. The “% FS (fractional shortening)” value [2, 4] was 36.63 ± 1.20%, the “IVS, d” value [2, 4] was 0.69 ± 0.03 mm and the “IVS, s” value [2, 4] was 1.19 ± 0.06 mm. For the same compound, the “LV vol, d” value [2, 4] was 64.06 ± 2.65 mm^3, the “LV vol, s” value [2, 4] was 23.06 ± 2.21 mm^3 and the “LVID, d” value [2, 4] was 3.92 ± 0.09 mm. For the same compound, the “LVID, s” value [2, 4] was 2.52 ± 0.10 mm, the “LVPW, d” value [2, 4] was 0.80 ± 0.06 mm and the “LVPW, s” value [2, 4] was 1.18 ± 0.05 mm. The “% EF (ejection fraction)” value [2, 5] was 60.93 ± 2.06 %, the “% FS (fractional shortening)” value [2, 5] was 33.08 ± 1.33 % and the “IVS, d” value [2, 5] was 0.66 ± 0.05 mm. For the same compound, the “IVS, s” value [2, 5] was 1.04 ± 0.07 mm, the “LV vol, d” value [2, 5] was 57.35 ± 2.19 mm^3 and the “LV vol, s” value [2, 5] was 24.67 ± 1.18 mm^3. For the same compound, the “LVID, d” value [2, 5] was 3.63 ± 0.07 mm, the “LVID, s” value [2, 5] was 2.50 ± 0.08 mm and the “LVPW, d” value [2, 5] was 0.71 ± 0.03 mm. The “LVPW, s” value [2, 5] was 1.09 ± 0.06 mm, the “% EF (ejection fraction)” value [2, 6] was 65.70 ± 0.82% and the “% FS (fractional shortening)” value [2, 6] was 35.52 ± 0.69%. The “IVS, d” value [2, 6] was 0.71 ± 0.05 mm, the “IVS, s” value [2, 6] was 1.13 ± 0.06 mm and the “LV vol, d” value [2, 6] was 65.87 ± 2.78 mm^3. The “LV vol, s” value [2, 6] was 22.24 ± 0.63 mm^3, the “LVID, d” value [2, 6] was 3.80 ± 0.11 mm and the “LVID, s” value [2, 6] was 2.45 ± 0.05 mm. For the same compound, the “LVPW, d” value [2, 6] was 0.81 ± 0.04 mm and the “LVPW, s” value [2, 6] was 1.25 ± 0.07 mm.
